From paper PMC9508756, “Selected coffee (Coffea arabica L.) extracts inhibit intestinal α-glucosidases activities in-vitro and postprandial hyperglycemia in SD Rats” (BMC Complementary Medicine and Therapies, 2022)

Experiments:
[1] = target: rat intestinal α-glucosidase; assay: Rat small intestinal α-glucosidase inhibition assay (pNPG substrate); type: biochemical
Protocol: In order to investigate the inhibitory effect of coffee extracts on the absorption of glucose, rat intestinal α-glucosidase inhibitory activity was determined using the substrate p-nitrophenyl-α-D-glucopyranoside (pNPG) according to [28] with a slight modification. A total of 0.6 g of rat-intestinal acetone powder was suspended in 9 mL of 0.1 M sodium phosphate buffer 0.9%, and the suspension was sonicated for 12 times 30 s at 4 °C. It was then centrifuged (13,000 × g, 30 min, 4 °C), and the resulting supernatant was used for the assay. […] Absorbance was measured at 405 nm and compared to a control that had 50 μL of buffer solution in place of the extract by Micro-Plate Reader (SpectraMAx® i3, Molecular devices LLC., Wals, Austria). The rat α-glucosidase inhibitory activity was expressed as percent inhibition and was calculated as follows: Inhibition%=ΔAControl405-ΔAExtract405/ΔAControl405×100
All data are presented as mean ± S.D. Statistical analyses were carried out using the statistical packages SPSS 11 (Statistical Package for Social Science 11, SPSS Inc., Chicago, IL, USA) program and the significance of each group was verified with the analyses of one-way ANOVA followed by Duncan’s test of p < 0.05. In addition, statistical significances in the animal study were determined by Student’s t-test (*p < 0.05; **p < 0.01; and *** p < 0.001). […]

Sprague–Dawley (SD) rats [2] = assay: Sucrose loading test, postprandial blood glucose in SD rats; type: in vivo, rat; conditions: sucrose 2.0 g/kg oral, extracts 0.5 g/kg, Acarbose 5.0 mg/kg, mean ± S.D., n = 5
From the text: (§1) All animal procedures were approved by the Institutional Animal Care and Use Com-[…]) of […] University (Approval number: HNU2016-0015-1). This study is reported in accordance with ARRIVE guidelines (https://arriveguidelines.org). Four-week-old male Sprague-Dawley (SD) rats were purchased from Joongang Experimental Animal Co. (Seoul, Korea) and fed with a standard diet (Samyang Diet Co., Seoul, Korea) and with water ad libitum for one week. Effect on hyperglycemia-induced by carbohydrate loads in Sprague-Dawley (SD) rats was determined by the inhibitory action of coffee extracts on postprandial hyperglycemia as described in [30]. […] In the case of the administration group, administration samples were prepared by mixing starch or sugar with coffee extracts by dose in advance were orally administrated using a zonde injection needle. […] The glucose level in blood was determined by the glucose oxidase method and compared with that of the control group. The parameters for blood glucose levels will be calculated Maximum observed peak blood glucose level (Cmax) and the time at which it is observed (Tmax) were determined based on the observed data. […] In addition, statistical significances in the animal study were determined by Student's t-test (*p < 0.05; **p < 0.01; and *** p < 0.001). […]

Sprague–Dawley (SD) rats [3] = assay: Starch loading test, postprandial blood glucose in SD rats; type: in vivo, rat; conditions: extracts 0.5 g/kg
From the text: as §1

Structure (SMILES): C[C@H]1O[C@H](O[C@H]2[C@H](O)[C@@H](O)[C@@H](O[C@H]3[C@H](O)[C@@H](O)C(O)O[C@@H]3CO)O[C@@H]2CO)[C@H](O)[C@@H](O)[C@@H]1N[C@H]1C=C(CO)[C@@H](O)[C@H](O)[C@H]1O (some centres unmarked) [Acarbose, acarbose]
- IC50 rat intestinal α-glucosidase ([1]; Ethanol extract row): < 500 µg/mL
- IC50 rat intestinal α-glucosidase ([1]; Water extract row): < 500 µg/mL
- AUCt (blood glucose-time curve) (Sprague–Dawley (SD) rats [2]): 376.2 ± 17.2^*** hr·mg/dL
- AUCt (blood glucose-time curve) (Sprague–Dawley (SD) rats [3]; starch 2.0 g/kg oral, Acarbose 5.0 mg/kg, mean ± S.D., n = 5): 389.0 ± 36.8^*** hr·mg/dL
- blood glucose level after starch loading compared to control (Sprague–Dawley (SD) rats [3]; starch 2.0 g/kg, Acarbose 5 mg/kg oral): significantly higher blood lowering than all the coffee types and the controls
